Measurements from the supplement of paper PMC10307832.

Legend:
Test in all cases: relative viability (nuclei count vs DMSO), 5 days (fraction); higher = more cells survive
PC-3 [JPC-3] = tested on: PC-3 [JPC-3]
Procedure, shortened: (§1)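 Lung cancer cell lines in 1536-well plates got either a single drug or a fixed anchor-drug dose together with five library-drug doses (not always all listed) in √10 steps, by pin tool, on the day after seeding. Nuclei were counted after 5 days, and relative viability is the treated-to-vehicle ratio of nuclei counts. Values are medians of duplicate plates.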

BEN = tested on: BEN
Procedure, shortened: as §1

COR-L 105 = tested on: COR-L 105
Procedure, shortened: as §1

NCI-H2170 = tested on: NCI-H2170
Procedure, shortened: as §1

SW 1573 = tested on: SW 1573
Procedure, shortened: as §1

LU99A = tested on: LU99A
Procedure, shortened: as §1

H3255 = tested on: H3255
Procedure, shortened: as §1

NCI-H1975 = tested on: NCI-H1975
Procedure, shortened: as §1

NCI-H1437 = tested on: NCI-H1437
Procedure, shortened: as §1

NCI-H2087 = tested on: NCI-H2087
Procedure, shortened: as §1

EKVX = tested on: EKVX
Procedure, shortened: as §1

NCI-H2085 = tested on: NCI-H2085
Procedure, shortened: as §1

EPLC-272H = tested on: EPLC-272H
Procedure, shortened: as §1

NCI-H2342 = tested on: NCI-H2342
Procedure, shortened: as §1

201T = tested on: 201T
Procedure, shortened: as §1

NCI-H1666 = tested on: NCI-H1666
Procedure, shortened: as §1

LCLC-97TM1 = tested on: LCLC-97TM1
Procedure, shortened: as §1

HCC-827 = tested on: HCC-827
Procedure, shortened: as §1

NCI-H650 = tested on: NCI-H650
Procedure, shortened: as §1

NCI-H647 = tested on: NCI-H647
Procedure, shortened: as §1

HCC-44 = tested on: HCC-44
Procedure, shortened: as §1

LOU-NH91 = tested on: LOU-NH91
Procedure, shortened: as §1

COc1cc2nccc(Oc3ccc(NC(=O)Nc4cc(C)on4)c(Cl)c3)c2cc1OC [Tivozanib] + O=C(CCCCCCC(=O)Nc1ccccc1)NO [Vorinostat] (partner 1 µM) was tested, and the relative viability (PC-3 [JPC-3]; first compound 0.01581 µM) was 0.814, the relative viability (PC-3 [JPC-3]; first compound 0.05 µM) was 0.801 and the relative viability (PC-3 [JPC-3]; first compound 0.1581 µM) was 0.691. It also gave a relative viability (PC-3 [JPC-3]; first compound 0.5 µM) of 0.592, a relative viability (BEN; first compound 0.005 µM) of 0.577 and a relative viability (BEN; first compound 0.01581 µM) of 0.572. For the same compound, the relative viability (BEN; first compound 0.05 µM) was 0.586, the relative viability (BEN; first compound 0.1581 µM) was 0.527 and the relative viability (BEN; first compound 0.5 µM) was 0.522. The relative viability (COR-L 105; first compound 0.005 µM) was 0.696, the relative viability (COR-L 105; first compound 0.01581 µM) was 0.743 and the relative viability (COR-L 105; first compound 0.05 µM) was 0.801. The relative viability (COR-L 105; first compound 0.1581 µM) was 0.821, the relative viability (COR-L 105; first compound 0.5 µM) was 0.794 and the relative viability (NCI-H2170; first compound 0.005 µM) was 0.74. It also gave a relative viability (NCI-H2170; first compound 0.01581 µM) of 0.782, a relative viability (NCI-H2170; first compound 0.05 µM) of 0.856 and a relative viability (NCI-H2170; first compound 0.5 µM) of 0.816. For the same compound, the relative viability (SW 1573; first compound 0.005 µM) was 0.614, the relative viability (SW 1573; first compound 0.01581 µM) was 0.935 and the relative viability (SW 1573; first compound 0.05 µM) was 0.677. For the same compound, the relative viability (SW 1573; first compound 0.1581 µM) was 0.506, the relative viability (SW 1573; first compound 0.5 µM) was 0.281 and the relative viability (LU99A; first compound 0.005 µM) was 0.43. For the same compound, the relative viability (LU99A; first compound 0.01581 µM) was 0.443, the relative viability (LU99A; first compound 0.05 µM) was 0.526 and the relative viability (LU99A; first compound 0.1581 µM) was 0.358. For the same compound, the relative viability (LU99A; first compound 0.5 µM) was 0.402, the relative viability (H3255; first compound 0.005 µM) was 0.633 and the relative viability (H3255; first compound 0.01581 µM) was 0.794. The relative viability (H3255; first compound 0.05 µM) was 0.885, the relative viability (H3255; first compound 0.1581 µM) was 0.888 and the relative viability (H3255; first compound 0.5 µM) was 0.611. For the same compound, the relative viability (NCI-H1975; first compound 0.005 µM) was 0.663, the relative viability (NCI-H1975; first compound 0.01581 µM) was 0.731 and the relative viability (NCI-H1975; first compound 0.05 µM) was 0.712. For the same compound, the relative viability (NCI-H1975; first compound 0.1581 µM) was 0.699, the relative viability (NCI-H1975; first compound 0.5 µM) was 0.666 and the relative viability (NCI-H1437; first compound 0.005 µM) was 0.769. It also gave a relative viability (NCI-H1437; first compound 0.01581 µM) of 0.876, a relative viability (NCI-H1437; first compound 0.05 µM) of 0.815 and a relative viability (NCI-H1437; first compound 0.1581 µM) of 0.746. It also gave a relative viability (NCI-H1437; first compound 0.5 µM) of 0.712, a relative viability (NCI-H2087; first compound 0.005 µM) of 0.917 and a relative viability (NCI-H2087; first compound 0.01581 µM) of 0.685. For the same compound, the relative viability (NCI-H2087; first compound 0.05 µM) was 0.663, the relative viability (NCI-H2087; first compound 0.1581 µM) was 0.698 and the relative viability (NCI-H2087; first compound 0.5 µM) was 0.428. It also gave a relative viability (EKVX; first compound 0.005 µM) of 0.787, a relative viability (EKVX; first compound 0.01581 µM) of 0.684 and a relative viability (EKVX; first compound 0.05 µM) of 0.803. For the same compound, the relative viability (EKVX; first compound 0.5 µM) was 0.765, the relative viability (NCI-H2085; first compound 0.005 µM) was 0.754 and the relative viability (NCI-H2085; first compound 0.01581 µM) was 0.796. The relative viability (NCI-H2085; first compound 0.05 µM) was 0.825, the relative viability (NCI-H2085; first compound 0.1581 µM) was 0.709 and the relative viability (NCI-H2085; first compound 0.5 µM) was 0.786. For the same compound, the relative viability (EPLC-272H; first compound 0.005 µM) was 0.452, the relative viability (EPLC-272H; first compound 0.01581 µM) was 0.617 and the relative viability (EPLC-272H; first compound 0.05 µM) was 0.385. The relative viability (EPLC-272H; first compound 0.1581 µM) was 0.435, the relative viability (EPLC-272H; first compound 0.5 µM) was 0.281 and the relative viability (NCI-H2342; first compound 0.005 µM) was 0.783. The relative viability (NCI-H2342; first compound 0.01581 µM) was 0.668, the relative viability (NCI-H2342; first compound 0.05 µM) was 0.719 and the relative viability (NCI-H2342; first compound 0.5 µM) was 0.811. It also gave a relative viability (201T; first compound 0.005 µM) of 0.983, a relative viability (201T; first compound 0.01581 µM) of 0.99 and a relative viability (201T; first compound 0.05 µM) of 1. The relative viability (201T; first compound 0.1581 µM) was 0.899, the relative viability (201T; first compound 0.5 µM) was 0.974 and the relative viability (NCI-H1666; first compound 0.005 µM) was 1.07. For the same compound, the relative viability (NCI-H1666; first compound 0.01581 µM) was 1.01, the relative viability (NCI-H1666; first compound 0.05 µM) was 1.11 and the relative viability (NCI-H1666; first compound 0.1581 µM) was 1.09. For the same compound, the relative viability (NCI-H1666; first compound 0.5 µM) was 0.978, the relative viability (LCLC-97TM1; first compound 0.005 µM) was 0.619 and the relative viability (LCLC-97TM1; first compound 0.01581 µM) was 0.69. For the same compound, the relative viability (LCLC-97TM1; first compound 0.05 µM) was 0.686, the relative viability (LCLC-97TM1; first compound 0.1581 µM) was 0.732 and the relative viability (LCLC-97TM1; first compound 0.5 µM) was 0.323. The relative viability (HCC-827; first compound 0.005 µM) was 0.69, the relative viability (HCC-827; first compound 0.01581 µM) was 0.851 and the relative viability (HCC-827; first compound 0.05 µM) was 0.879. The relative viability (HCC-827; first compound 0.1581 µM) was 0.854, the relative viability (HCC-827; first compound 0.5 µM) was 0.864 and the relative viability (NCI-H650; first compound 0.005 µM) was 0.348. The relative viability (NCI-H650; first compound 0.01581 µM) was 0.379, the relative viability (NCI-H650; first compound 0.05 µM) was 0.414 and the relative viability (NCI-H650; first compound 0.1581 µM) was 0.29. The relative viability (NCI-H650; first compound 0.5 µM) was 0.296, the relative viability (NCI-H647; first compound 0.005 µM) was 0.555 and the relative viability (NCI-H647; first compound 0.01581 µM) was 0.654. It also gave a relative viability (NCI-H647; first compound 0.05 µM) of 0.692, a relative viability (NCI-H647; first compound 0.1581 µM) of 0.631 and a relative viability (NCI-H647; first compound 0.5 µM) of 0.48. It also gave a relative viability (HCC-44; first compound 0.005 µM) of 1.03, a relative viability (HCC-44; first compound 0.01581 µM) of 1.09 and a relative viability (HCC-44; first compound 0.05 µM) of 1.1. For the same compound, the relative viability (HCC-44; first compound 0.1581 µM) was 1.17, the relative viability (HCC-44; first compound 0.5 µM) was 1.02 and the relative viability (LOU-NH91; first compound 0.005 µM) was 0.754. For the same compound, the relative viability (LOU-NH91; first compound 0.01581 µM) was 0.952, the relative viability (LOU-NH91; first compound 0.05 µM) was 0.908 and the relative viability (LOU-NH91; first compound 0.1581 µM) was 0.782. The relative viability (LOU-NH91; first compound 0.5 µM) was 0.761.
